This passage reports inhibition and MIC results from ChEMBL document CHEMBL1142873, “Synthesis, structural activity relationship and anti-tubercular activity of novel pyrazoline derivatives” (2007).

Holding throughout (type): functional
In experiment [1] the test system is Mycobacterium tuberculosis. Kind of experiment: Antimycobacterial activity against Mycobacterium tuberculosis H37Rv at 0.0118 uM.
In experiment [2] the test system is Mycobacterium tuberculosis. Kind of experiment: Antimycobacterial activity against Mycobacterium tuberculosis H37Rv.
Experiment [3] deals with Mycobacterium tuberculosis. Kind of experiment: Antimycobacterial activity against Mycobacterium tuberculosis H37Rv at 0.0164 uM.
Experiment [4] deals with Mycobacterium tuberculosis. Briefly: Antimycobacterial activity against Mycobacterium tuberculosis H37Rv at 0.0202 uM.
For experiment [5], the system named is Mycobacterium tuberculosis. Kind of experiment: Antimycobacterial activity against Mycobacterium tuberculosis H37Rv at 0.2080 uM.
Experiment [6] concerns Mycobacterium tuberculosis. Kind of experiment: Antimycobacterial activity against Mycobacterium tuberculosis H37Rv at 0.0201 uM.
Experiment [7] deals with Mycobacterium tuberculosis. Briefly: Antimycobacterial activity against Mycobacterium tuberculosis H37Rv at 0.1706 uM.
The subject of experiment [8] is Mycobacterium tuberculosis. Briefly: Antimycobacterial activity against Mycobacterium tuberculosis H37Rv at 0.0138 uM.
Experiment [9] has as its system Mycobacterium tuberculosis. Kind of experiment: Antimycobacterial activity against Mycobacterium tuberculosis H37Rv at 0.0140 uM.
Experiment [10] deals with Mycobacterium tuberculosis. Briefly: Antimycobacterial activity against Mycobacterium tuberculosis H37Rv at 0.0354 uM.
The test system of experiment [11] is Mycobacterium tuberculosis. Kind of experiment: Antimycobacterial activity against Mycobacterium tuberculosis H37Rv at 0.0135 uM.
Experiment [12] relates to Mycobacterium tuberculosis. Briefly: Antimycobacterial activity against Mycobacterium tuberculosis H37Rv at 0.0149 uM.
Experiment [13] concerns Mycobacterium tuberculosis. Kind of experiment: Antimycobacterial activity against Mycobacterium tuberculosis H37Rv at 0.0977 uM.
The test system of experiment [14] is Mycobacterium tuberculosis. Briefly: Antimycobacterial activity against Mycobacterium tuberculosis H37Rv at 0.0148 uM.
Experiment [15] has as its system Mycobacterium tuberculosis. Briefly: Antimycobacterial activity against Mycobacterium tuberculosis H37Rv at 0.0143 uM.
In experiment [16] the test system is Mycobacterium tuberculosis. Kind of experiment: Antimycobacterial activity against Mycobacterium tuberculosis H37Rv at 0.0132 uM.
In experiment [17] the test system is Mycobacterium tuberculosis. Briefly: Antimycobacterial activity against Mycobacterium tuberculosis H37Rv at 0.0092 uM.
In experiment [18] the test system is Mycobacterium tuberculosis. Briefly: Antimycobacterial activity against Mycobacterium tuberculosis H37Rv at 0.0034 uM.
The subject of experiment [19] is Mycobacterium tuberculosis. Kind of experiment: Antimycobacterial activity against Mycobacterium tuberculosis H37Rv at 0.1467 uM.
Experiment [20] deals with Mycobacterium tuberculosis. Kind of experiment: Antimycobacterial activity against Mycobacterium tuberculosis H37Rv at 0.0150 uM.
For experiment [21], the system named is Mycobacterium tuberculosis. Briefly: Antimycobacterial activity against Mycobacterium tuberculosis H37Rv at 0.0084 uM.
Experiment [22] concerns Mycobacterium tuberculosis. Briefly: Antimycobacterial activity against Mycobacterium tuberculosis H37Rv at 0.0403 uM.

Values after ≈ are worked out from the molar mass of the structure shown.

In turn, `COc1ccccc1NC(=S)N1N=C(c2ccc(O)c(C)c2)CC1c1ccc(OC)c(OC)c1` (stereo not given) returned an inhibition at 0.0118 µM in [1] of 88%. The MIC in [2] was determined as 5.67 µg/mL (≈ 11.9 µM).

In [3], `COc1ccccc1NC(=S)N1N=C(c2ccc(O)c(C)c2)CC1c1ccc(F)cc1` (stereo not given) had an inhibition at 0.0164 µM of 16%.

Molecule `COc1ccccc1NC(=S)N1N=C(c2ccc(O)c(C)c2)CC1c1ccccc1Cl` (stereo not given) yielded an inhibition at 0.0202 µM in experiment [4] of 44%. `COc1ccccc1NC(=S)N1N=C(c2ccc(O)c(C)c2)CC1c1cccc([N+](=O)[O-])c1` (stereo not given): testing at 0.208 µM in [5] gave an inhibition of 8%.

In [6], `COc1ccccc1NC(=S)N1N=C(c2ccc(O)c(C)c2)CC1Cc1ccco1` (stereo not given) came in with an inhibition at 0.0201 µM of 18%. As to `Cc1cc(C2=NN(C(=S)Nc3ccccc3C)C(Cc3ccco3)C2)ccc1O` (stereo not given), 0.1706 µM produced 26% inhibition in experiment [7]. In experiment [8], `COc1ccccc1NC(=S)N1N=C(c2ccc(O)c(C)c2)CC1c1ccc(Cl)cc1` (stereo not given) yielded an inhibition at 0.0138 µM of 4%. This molecule displayed an MIC in experiment [2] of 6.25 µg/mL (≈ 13.8 µM).

`Cc1cc(C2=NN(C(=S)Nc3ccccc3C)C(c3ccc(N(C)C)cc3)C2)ccc1O` (stereo not given) displayed an inhibition at 0.014 µM in experiment [9] of 12%. Besides, in experiment [2], inhibition of growth (MIC) required 6.25 µg/mL (≈ 14.1 µM). For `Cc1cc(C2=NN(C(=S)Nc3ccccc3C)C(c3ccccc3)C2)ccc1O` (stereo not given), the inhibition at 0.0354 µM in experiment [10] came to 29%. Molecule `COc1ccccc1NC(=S)N1N=C(c2ccc(O)c(C)c2)CC1c1ccc(N(C)C)cc1` (stereo not given) registered an inhibition at 0.0135 µM in [11] of 28%. The same molecule had an MIC in [2] of 6.25 µg/mL (≈ 13.6 µM). Molecule `COc1ccccc1NC(=S)N1N=C(c2ccc(O)c(C)c2)CC1c1ccccc1` (stereo not given) displayed an inhibition at 0.0149 µM in experiment [12] of 6%. The molecule further showed a minimal inhibitory concentration (MIC) in experiment [2] of 6.25 µg/mL (≈ 15 µM). On to `COc1ccc(C2CC(c3ccc(O)c(C)c3)=NN2C(=S)Nc2ccccc2C)cc1OC` (stereo not given), for which the inhibition at 0.0977 µM in experiment [13] was 72%. In experiment [14], `Cc1cc(C2=NN(C(=S)Nc3ccccc3C)C(c3ccc(F)cc3)C2)ccc1O` (stereo not given) displayed an inhibition at 0.0148 µM of 32%. The molecule also came in with a minimal inhibitory concentration (MIC) in experiment [2] of 6.25 µg/mL (≈ 14.9 µM). Molecule `Cc1cc(C2=NN(C(=S)Nc3ccccc3C)C(c3c(Cl)cccc3Cl)C2)ccc1O` (stereo not given) came in with an inhibition at 0.0143 µM in experiment [15] of 21%. In [2], this molecule gave an MIC of 6.25 µg/mL (≈ 13.3 µM). In experiment [16], `Cc1cc(C2=NN(C(=S)Nc3ccccc3C)C(c3cccc([N+](=O)[O-])c3)C2)ccc1O` (stereo not given) had an inhibition at 0.0132 µM of 14%. The molecule also yielded an MIC in experiment [2] of 6.25 µg/mL (≈ 14 µM).

`COc1ccc(C2CC(c3ccc(O)c(C)c3)=NN2C(=S)Nc2ccccc2OC)cc1` (stereo not given) gave an inhibition at 0.0092 µM in experiment [17] of 94%. Also, the MIC in [2] was 4.12 µg/mL (≈ 9.21 µM). In turn, `COc1ccccc1NC(=S)N1N=C(c2ccc(O)c(C)c2)CC1c1c(Cl)cccc1Cl` (stereo not given) registered an inhibition at 0.0034 µM in experiment [18] of 98%. Also, the MIC in experiment [2] stood at 1.66 µg/mL (≈ 3.41 µM).

The molecule `COc1cc(C2CC(c3ccc(O)c(C)c3)=NN2C(=S)Nc2ccccc2C)cc(OC)c1OC` (stereo not given) came in with an inhibition at 0.1467 µM in [19] of 44%. In experiment [20], `Cc1cc(C2=NN(C(=S)Nc3ccccc3C)C(c3ccccc3Cl)C2)ccc1O` (stereo not given) registered an inhibition at 0.015 µM of 33%. The same molecule yielded a minimum inhibitory concentration (MIC) in experiment [2] of 6.25 µg/mL (≈ 14.3 µM). `COc1ccccc1NC(=S)N1N=C(c2ccc(O)c(C)c2)CC1c1cc(OC)c(OC)c(OC)c1` (stereo not given) displayed an inhibition at 0.0084 µM in [21] of 92%.

In the case of `Cc1cc(C2=NN(C(=S)Nc3ccccc3C)C(c3ccc(Cl)cc3)C2)ccc1O` (stereo not given), the inhibition at 0.0143 µM in experiment [15] amounted to 44%. For the same molecule, the MIC in experiment [2] came to 6.25 µg/mL (≈ 14.3 µM). Turning to `COc1ccc(C2CC(c3ccc(O)c(C)c3)=NN2C(=S)Nc2ccccc2C)cc1` (stereo not given), at 0.0403 µM the inhibition in [22] was 6%. For the molecule `NNC(=O)c1ccncc1` [ISONIAZID], the lowest concentration to inhibit growth in experiment [2] (MIC) was 0.025 µg/mL (≈ 0.182 µM).

Usually inhibition stands for the percentage by which the read-out fell short of the control. A low value points to a response near the control. One may read the MIC as the least concentration at which growth counts as inhibited.
